Experimental data reported in patent US20260224475A1, “MULTI-COMPONENT INTRAVAGINAL RING” (priority 2023, published 2026).
Read-outs that look alike come from different tables or passages of the source.

Experiments:
HSV-2 G = test: HSV-2 plaque reduction assay; format: cell-based; conditions: single API, 30 min pre-incubation with HSV-2 G in saline, read-out: EC50 (95% confidence interval)
Procedure: The HSV-2 plaque reduction assay was performed to test the anti-HSV-2 activity of ZA, CS and LA. […] Virus controls containing HSV-2 in saline were incubated under the same conditions. After incubation all dilutions and controls were diluted 1/10 in DMEM and tittered using the plaque assay. FIG. 12 and Table 10 show the results. […] The data represented the average of two independent experiments. In Table 10, the molar ratio of CS:LA:ZA in ZS-CA-LA is 1:20:100.

human sperm [1] = test: Sperm motility assay; format: cell-based; conditions: for Average Motility Reduction: average of nine 3-API checkerboard combinations containing the named API at this dose; for Average CI: average of nine 3-API combinations
Procedure: Fresh human sperm samples were obtained the day of the experiment. 100 mM stock solutions of each API in saline were prepared in advance. Immediately prior to the experiment, solutions of each API concentration to be tested were prepared via dilution with saline. These include solutions of multiple APIs added together.
The effect of each API on sperm motility and viability was determined using human donors, adding 200 μL of API's diluted in sterile saline to 50 μL of fresh semen. For motility assessments, the incubation mixture was incubated for 5 minutes and then 100 sperm were counted under the microscope by two andrology-trained researchers and classified as either non-motile or motile. If motile, the sperm were further classified according to the nature of their motility—from barely twitching with no forward progression to progressively motile. Each experiment was repeated at least three times on different days using different donors to account for natural variations in sperm properties.
The % motility for each experimental condition was calculated by normalizing the fraction of motile sperm in the experimental groups to the fraction of motile sperm in the saline control treated group, setting 100% to the average fraction of motile sperm from control experiments. For example, the % motility at concentration c would be:
Once % motility data was obtained, the synergy was measured with Compusyn software. See Chou et al., CompuSyn for drug combinations: PC software and user's guide: a computer program for quantitation of synergism and antagonism in drug combinations, and the determination of IC50. ED50 and LD50 values, which is incorporated herein by reference in its entirety. Motility data for individual API concentration as well as all double and triple API solutions was entered into the program and analyzed according to the Chou-Talalay Median Effect Principle.
Next, the synergy between each of the APIs was tested to determine if there were any synergistic effects between compounds which would allow for reduced dosages. Each of the three possible two-compound combinations were tested, followed by the combination of all three APIs. […] Synergy was calculated with Compusyn using the Chou-Talalay Median Effect approach and represented as a CI (Combination Index) value. […] The smaller the CI value for a combination, the greater the degree of synergy.
After the two-API combinations were complete, the full three-way synergy was tested using a 3×3×3 checkerboard style assay to test all 27 permutations of three chosen concentrations for each of the three APIs.
From the resulting data, the estimated effects of each of the individual API were isolated by averaging % reduction in motility and the CI values for each of the API concentrations tested. With this 3×3×3 checkerboard assay, each single concentration was tested against nine permutations of the other two APIs, meaning that each cell in Table 4 represents the average of the nine combinations involving the specified API concentration.
Synergy was calculated utilizing the Chou-Talalay median effect principle and Compusyn software which quantifies synergy as a combination index (CI) for each combination. A CI<1 signifies synergy, a CI>1 signifies antagonism and a CI=1 signifies a purely additive effect.

Ectocervical explants = tested on: Ectocervical explants
Procedure: Kruskal-Wallis test with Dunn's multiple comparison) (FIG. 22).
In FIG. 23, ectocervical explants were incubated with the selected concentrations of the APIs for 24 hr in the presence or absence of 5% VF. Explants were fixed, paraffin embedded, sectioned and stained with H&E.
Ectocervical explants were exposed to the APIs 24 hr in the presence or absence of 5% VF. Supernatants were collected and analyzed for pro-inflammatory cytokines.

VEC-100 tissue [2] = conditions: 100 mM
Procedure: VEC-100 tissues were incubated with APIs for 24 hr. Tissue viability was analyzed by MTT and LDH assay and TEER measurements were recorded.

G. vaginalis = test: Minimal cidal concentration (MCC); format: cell-based; conditions: 30 minutes exposure; >3 log decrease in CFU considered cidal
N. gonorrhoeae = test: Minimal cidal concentration (MCC); format: cell-based
HIV-1BaL = test: MAGI assay, anti-HIV-1BaL activity in TZMbl cells; format: cell-based; conditions: single API; 30 min pre-incubation with virus in saline, 10-fold dilution, 72 h on TZMbl cells; read-out: EC50 (95% confidence interval)
Procedure: MAGI assay was performed to test anti-HIV-1BaL activity. […] Virus controls containing HIV-1BaL in saline were incubated under the same conditions. Following incubation, API-HIV-1BaL mixture was diluted 10-fold and added to TZMbl cells. Following 72-hour incubation, the cells were washed and stained with X-gal and fixed. […] Infected cells were counted using CTL instrument.

C. trachomatis = test: Bactericidal activity against C. trachomatis (inclusion count in HeLa cells); format: cell-based; conditions: absence or presence of 2% VF and 20% SF, 2 hours at room temperature; LA 80 mM
Procedure: C. trachomatis was incubated with actives ±2% VF and 20% SF for 2 hours at room temperature. The mixtures were serially diluted 1/10 in SPG solution, applied on HeLa cells in triplicate. Images were acquired using the Cytation-5 instrument and the inclusion count was analyzed using the Gen5 software in the Cytation-5. Control conditions included HeLa cells challenged with C. trachomatis in the absence of the actives. (FIG. 15).

VEC-100 tissue [3] = test: VEC-100 tissue, repeated exposure (1 hr daily for 5 days; viability, TEER); format: cell-based
[4] = 10 days exposure
human sperm [5] = test: Sperm-Cervical Mucus Penetration Test (SMPT) in methylcellulose; format: cell-based
[6] = Dose 1 (CS 2.95, ZA 4.75, LA 10.26 mM)
[7] = Dose 2 (CS 3.94, ZA 6.34, LA 13.70 mM)
[8] = Dose 3 (CS 5.90, ZA 9.51, LA 20.54 mM)

CC(=O)[O-].CC(=O)[O-].[Zn+2] [ZA, zinc acetate]
EC50 (HSV-2 G): 0.78 mM | Average Motility Reduction (human sperm [1]; [6]): 63.47% | Average CI (human sperm [1]; [6]): 0.48 | Average Motility Reduction (human sperm [1]; [7]): 73.77% | Average CI (human sperm [1]; [7]): 0.47 | Average Motility Reduction (human sperm [1]; [8]): 80.09% | Average CI (human sperm [1]; [8]): 0.45 | EC50 (human sperm [1]; single API (CS/ZA/LA study), saline, 5 min with fresh semen, % motility vs saline control): 19 mM | EC90 (human sperm [1]; single API (CS/ZA/LA study), saline, 5 min with fresh semen, % motility vs saline control, read-out: EC90): 33.2 mM | Ectocervix: single exposure (MTT, Histology, CC) 24 h, 5% VF (Ectocervical explants; 100 mM): No Tox | Ectocervix: single exposure (MTT, Histology, CC) 24 h, No VF (Ectocervical explants; 100 mM): No Tox | VEC-100: Single exposure (MTT, TEER and LDH) 24 h, No VF (VEC-100 tissue [2]): No Tox | MCC (G. vaginalis): > 100 mM | MCC 10% AB Serum (N. gonorrhoeae): 100 mM | MCC 30% AB Serum (N. gonorrhoeae): >100 mM | MCC (N. gonorrhoeae; 30 minutes exposure, >3 log decrease in CFU considered cidal): 100 mM | MCC No Serum (N. gonorrhoeae): 100 mM | EC50 (HIV-1BaL): 1.96 mM

CC(O)C(=O)[O-].CC(O)C(=O)[O-].[Zn+2] (centres unmarked) [ZL, zinc lactate]
inhibition of C. trachomatis infection (in words) (C. trachomatis): exception | VEC-100 single exposure (MTT, TEER and LDH) day 1-5 24 h No VF (VEC-100 tissue [3]; 10 mM): No Tox | VEC-100 single exposure (MTT, TEER and LDH) day 1-5 24 h No VF (VEC-100 tissue [3]; 21 mM): No Tox | Non-toxic concentrations in VEC-100 model TEER and LDH 5 daily exposures (VEC-100 tissue [3]; multiple treatments): 21 mM | EC90 (human sperm [1]; Table 16, concentration of the named API in the CS + ZL + LA combination (cf. Table 7), read-out: Anti-Sperm concentrations Total motility (EC90)): 22 mM | EC90 (human sperm [1]; Table 18, concentration of the named API in the CS + ZL + LA combination, read-out: Anti-Sperm concentrations Total motility (EC90)): 22 mM | MIC (concentration to inhibit progressive sperm motility) (human sperm [1]; single API): 30 mM | EC50 (human sperm [1]; single API (CS/ZL/LA study)): 45 mM | EC90 (human sperm [1]; single API (CS/ZL/LA study), read-out: EC90): 94 mM | EC90 (human sperm [1]; single API, read-out: Reduction of Sperm Motility EC90 [95% CI] (concentration to inhibit total sperm motility)): 94 mM | Ectocervix: single exposure (MTT, Histology, CC) 24 h, 5% VF (Ectocervical explants; 25 mM): No Tox | Ectocervix: single exposure (MTT, Histology, CC) 24 h, No VF (Ectocervical explants; 25 mM): No Tox | Ectocervix: single exposure (MTT, Histology, CC) 24 h, 5% VF (Ectocervical explants; 50 mM): No Tox | Ectocervix: single exposure (MTT, Histology, CC) 24 h, No VF (Ectocervical explants; 50 mM): No Tox | Ectocervix: single exposure (MTT, Histology, CC) 24 h, 5% VF (Ectocervical explants; 100 mM): No Tox | Ectocervix: single exposure (MTT, Histology, CC) 24 h, No VF (Ectocervical explants; 100 mM): No Tox | Non-toxic concentrations in ectocervix MTT and histology 24 hr (Ectocervical explants; single treatment): 100 mM | Non-toxic concentrations based on rat vaginal irritation study 10 days exposure [4]: 50 mM | EC90 (human sperm [5]; Table 16, concentration of the named API in the CS + ZL + LA combination (cf. Table 7), read-out: Anti-Sperm concentrations Sperm-mucus penetration (EC90)): 5 mM | EC90 (human sperm [5]; Table 18, concentration of the named API in the CS + ZL + LA combination, read-out: Anti-Sperm concentrations Sperm-mucus penetration (EC90)): 5 mM | EC90 (human sperm [5]; single API, 1% methylcellulose, 30 minutes, read-out: Inhibition of Sperm Mucus Penetration EC90 [95% CI] (Migration of vanguard sperm in methyl cellulose spiked with API)): 13 mM | MCC 10% AB Serum (N. gonorrhoeae): >100 mM | MCC 30% AB Serum (N. gonorrhoeae): >100 mM | MCC No Serum (N. gonorrhoeae): >100 mM | inhibitory activity (in words) (N. gonorrhoeae; ± human serum): not inhibitory

Triton [reference compound]
VEC-100 single exposure (MTT, TEER and LDH) day 1-5 24 h No VF (VEC-100 tissue [3]; control, concentration not given): Tox
